Source: PubChem BioAssay AID1259407 (Chemical Carcinogenesis Research Information System (CCRIS), 2018)
Active and inactive are the calls of the source. The rule behind the calls is not given here.

Tested on: CCRIS mutagenicity, Ames/micronucleus/aberration tests
Assay: CCRIS mutagenicity studies
[1] = Test System: AMES SALMONELLA TYPHIMURIUM, Strain/Indicator: TA97, Metabolic Activation: NONE, Method: STANDARD PLATE
[2] = Test System: AMES SALMONELLA TYPHIMURIUM, Strain/Indicator: TA98, Metabolic Activation: NONE, Method: STANDARD PLATE
[3] = Test System: AMES SALMONELLA TYPHIMURIUM, Strain/Indicator: TA100, Metabolic Activation: NONE, Method: STANDARD PLATE

Structure (SMILES): COP(=S)(OC)SCN1C(=O)c2ccccc2C1=O
- mutagenic call [1]: active; positive
- mutagenic call (Test System: AMES SALMONELLA TYPHIMURIUM, Strain/Indicator: TA97, Metabolic Activation: RAT, LIVER, S-9, DELOR 103, Method: STANDARD PLATE): active; positive
- mutagenic call (Test System: AMES SALMONELLA TYPHIMURIUM, Strain/Indicator: TA97, Metabolic Activation: RAT, LIVER, S-9, PHENOBARBITAL, Method: STANDARD PLATE): active; positive
- mutagenic call [2]: inactive; negative
- mutagenic call (Test System: AMES SALMONELLA TYPHIMURIUM, Strain/Indicator: TA98, Metabolic Activation: RAT, LIVER, S-9, DELOR 103, Method: STANDARD PLATE): inactive; negative
- mutagenic call (Test System: AMES SALMONELLA TYPHIMURIUM, Strain/Indicator: TA98, Metabolic Activation: RAT, LIVER, S-9, PHENOBARBITAL, Method: STANDARD PLATE): inactive; negative
- mutagenic call [3]: active; positive
- mutagenic call (Test System: AMES SALMONELLA TYPHIMURIUM, Strain/Indicator: TA100, Metabolic Activation: RAT, LIVER, S-9, DELOR 103, Method: STANDARD PLATE): active; positive
- mutagenic call (Test System: AMES SALMONELLA TYPHIMURIUM, Strain/Indicator: TA100, Metabolic Activation: RAT, LIVER, S-9, PHENOBARBITAL, Method: STANDARD PLATE): active; positive
- mutagenic call (Test System: AMES SALMONELLA TYPHIMURIUM, Strain/Indicator: TA100, Metabolic Activation: S-9 MIX, Method: STANDARD PLATE): active; positive
- mutagenic call (Test System: AMES SALMONELLA TYPHIMURIUM, Strain/Indicator: TA1535, Metabolic Activation: NONE, Method: STANDARD PLATE): inactive; negative
- mutagenic call (Test System: AMES SALMONELLA TYPHIMURIUM, Strain/Indicator: TA1535, Metabolic Activation: RAT, LIVER, S-9, DELOR 103, Method: STANDARD PLATE): inactive; negative
- mutagenic call (Test System: AMES SALMONELLA TYPHIMURIUM, Strain/Indicator: TA1535, Metabolic Activation: RAT, LIVER, S-9, PHENOBARBITAL, Method: STANDARD PLATE): inactive; negative
- mutagenic call (Test System: AMES SALMONELLA TYPHIMURIUM, Strain/Indicator: TA1538, Metabolic Activation: NONE, Method: STANDARD PLATE): inactive; negative
- mutagenic call (Test System: AMES SALMONELLA TYPHIMURIUM, Strain/Indicator: TA1538, Metabolic Activation: RAT, LIVER, S-9, DELOR 103, Method: STANDARD PLATE): inactive; negative
- mutagenic call (Test System: AMES SALMONELLA TYPHIMURIUM, Strain/Indicator: TA1538, Metabolic Activation: RAT, LIVER, S-9, PHENOBARBITAL, Method: STANDARD PLATE): inactive; negative
- mutagenic call (Test System: CHINESE HAMSTER V-79, Strain/Indicator: V-79/6-THIOGUANINE, Metabolic Activation: NONE, Method: RESPREADING): inactive; negative
- mutagenic call (Test System: CHINESE HAMSTER V-79, Strain/Indicator: V-79/6-THIOGUANINE, Metabolic Activation: RAT, LIVER, S-9, Method: RESPREADING): active; positive

Structure (SMILES): CCNc1nc(NC(C)C)[nH]c(=O)n1
- mutagenic call [1]: inactive; negative
- mutagenic call [2]: inactive; negative
- mutagenic call [3]: inactive; negative

Structure (SMILES): NCCCCCCCCCCCC(=O)O
- mutagenic call (Test System: AMES SALMONELLA TYPHIMURIUM, Strain/Indicator: TA98, Metabolic Activation: NONE, Method: PREINCUBATION): inactive; negative
- mutagenic call (Test System: AMES SALMONELLA TYPHIMURIUM, Strain/Indicator: TA98, Metabolic Activation: RAT LIVER S-9, PHENOBARBITAL AND BETA-NAPHTHOFLAVONE, Method: PREINCUBATION): inactive; negative
- mutagenic call (Test System: AMES SALMONELLA TYPHIMURIUM, Strain/Indicator: TA100, Metabolic Activation: NONE, Method: PREINCUBATION): inactive; negative
- mutagenic call (Test System: AMES SALMONELLA TYPHIMURIUM, Strain/Indicator: TA100, Metabolic Activation: RAT LIVER S-9, PHENOBARBITAL AND BETA-NAPHTHOFLAVONE, Method: PREINCUBATION): inactive; negative
- mutagenic call (Test System: AMES SALMONELLA TYPHIMURIUM, Strain/Indicator: TA1535, Metabolic Activation: NONE, Method: PREINCUBATION): inactive; negative
- mutagenic call (Test System: AMES SALMONELLA TYPHIMURIUM, Strain/Indicator: TA1535, Metabolic Activation: RAT LIVER S-9, PHENOBARBITAL AND BETA-NAPHTHOFLAVONE, Method: PREINCUBATION): inactive; negative
- mutagenic call (Test System: AMES SALMONELLA TYPHIMURIUM, Strain/Indicator: TA1537, Metabolic Activation: NONE, Method: PREINCUBATION): inactive; negative
- mutagenic call (Test System: AMES SALMONELLA TYPHIMURIUM, Strain/Indicator: TA1537, Metabolic Activation: RAT LIVER S-9, PHENOBARBITAL AND BETA-NAPHTHOFLAVONE, Method: PREINCUBATION): inactive; negative
- mutagenic call (Test System: E.COLI, Strain/Indicator: WP2UVRA/PKM101, Metabolic Activation: NONE, Method: PREINCUBATION): inactive; negative
- mutagenic call (Test System: E.COLI, Strain/Indicator: WP2UVRA/PKM101, Metabolic Activation: RAT LIVER S-9, PHENOBARBITAL AND BETA-NAPHTHOFLAVONE, Method: PREINCUBATION): inactive; negative
